In patent publication US10500218B2, “Uptake of pharmaceuticals within cyclodextrin-based porous materials” (Northwestern University, priority 2015, dated 2019):

Columns and labels:
[1] = system: MDA-MB-231 (human breast adenocarcinoma); test: Growth inhibition / cell viability (Cell Titer-Glo) on MDA-MB-231 cells; assay type: cell-based; conditions: 48 hours, tested up to 100 μM
Method: (§1) Toxicity studies of both CD-MOF-1 and ibuprofen were carried out in vitro on two cell lines: MCF-10A (human mammary epithelial cells) (FIG. 4A) and MDA-MB-231 (human breast adenocarcinoma) (FIG. 4B). For both cell lines, no IC50 value could be obtained for CD-MOF-1, and ibuprofen up to concentrations of 100 μM.
(§2) Cell Studies. For cell studies, CD-MOF-1 was solubilized in H2O and the free-acid of ibuprofen was solubilized in Me2SO. The growth inhibition of various cell lines was determined according to the protocols from the NCl/NIH Developmental Therapeutics Program, and in collaboration with the Northwestern University Developmental Therapeutics Core Facility. Cells were plated in triplicate in 96 well plates. The cells were plated at densities of 10,000 per well in 90 μL for MDA-MB-231; and 25,000 per well in 90 μL for MCF-10A. The MDA-MB-231 cells were cultured in RPMI1640 media supplemented with 10% Fetal Bovine Serum (FBS), and 2 mM glutamine with 5% CO2 at 37° C. For experiments, 5% of FBS and 50 μg/mL of gentamycin were used. […]
(§3) Time zero cells (Tz) were processed according to the Promega Cell Titer Glo, and the following day Cell Titer-Glo Luminescent Cell Viability Assay. […] The plates were shaken for 2 min and allowed to sit for activation prior to reading for 10 min. Plates were read on a BioTek reader using the luminescence program.

[2] = system: MCF-10A (human mammary epithelial cells); test: Growth inhibition / cell viability (Cell Titer-Glo) on MCF-10A cells; assay type: cell-based; conditions: 48 hours, tested up to 100 μM
Method: as §1, §2, §3

[3] = Storage under ambient conditions: hygroscopicity and crystallinity (PXRD); assay type: physicochemical; conditions: atmospheric / ambient conditions, several months for the CD-MOF-1 formulation
Method: FIG. 3A depicts powder X-ray diffraction (PXRD) of freshly prepared CD-MOF-1 formulations of ibuprofen prepared by co-crystallization from the potassium salt of ibuprofen and adsorption of the deprotonated acid form of ibuprofen within a pre-existing CD-MOF-1, compared to the predicted I432 diffraction pattern.
Three formulations were tested: ibuprofen, potassium salt, and a physical mixture of 23 wt. % ibuprofen, potassium salt with γ-CD (which is analogous to a stoichiometric loading of ibuprofen within CD-MOF-1 created by co-crystallization) were used as control samples, and the third formulation contained CD-MOF-1 loaded with 26 wt. % ibuprofen by the adsorption protocol. The potassium salt of ibuprofen was considered to be the most appropriate control form of ibuprofen in this study, as the results of the solvent-dependent adsorption loading of ibuprofen is evidence that an anion exchange process was occurring within CD-MOf-1, i.e., deprotonation of the free-acid form of ibuprofen, which was facilitated by water-miscible polar solvents. […] It is used, however, in rapid release gelatin capsules.

CC(C)Cc1ccc(C(C)C(=O)O)cc1 (racemic) [ibuprofen]
IC50 [1]: > 100 µM | IC50 [2]: > 100 µM

CC(C)Cc1ccc(C(C)C(=O)[O-])cc1.[K+] (stereo not drawn) [potassium salt of ibuprofen, ibuprofen, potassium salt]
hygroscopicity [3]: very hygroscopic
